The test system of one experiment is KB. As to the kind of experiment: Growth inhibition of human KB cells by MTT assay. It counts as functional, cell-based.
A further experiment concerns the target Protein kinase C (PKC). As to the kind of experiment: Inhibition of rat brain protein kinase C.

Converted amounts (≈) assume the structure as drawn.

The term IC50 denotes the concentration needed to halve the response being measured. Low readings indicate higher potency, high ones lower potency. On to `O=c1nc2n(-c3ccccc3)c3ccccc3cc-2c(=O)n1-c1ccccc1`, for which the figures for the IC50 in the experiment on KB and at Protein kinase C (PKC) were above 10 µg/mL and above 100 µg/mL, respectively.
As for `Cc1ccc2c(c1)cc1c(=O)nc(-c3ccccc3)nc-1n2C`, the IC50 in the experiment with KB stood at 1.17 µg/mL (≈ 3.88 µM); against Protein kinase C (PKC) it was 4.55 µg/mL (≈ 15.1 µM).
The matching figures for `CCCn1c2nc(=O)n(C)c(=O)c-2cc2ccccc21`: above 10 µg/mL and 46 µg/mL (≈ 171 µM).
For `CCCCn1c2nc(=O)[nH]c(=O)c-2cc2ccccc21`, the IC50 with KB is above 10 µg/mL; against Protein kinase C (PKC) it was 89.7 µg/mL (≈ 333 µM).
With `O=c1nc2n(-c3ccccc3)c3ccccc3cc-2c(=O)[nH]1`, the IC50 with KB was above 10 µg/mL; at Protein kinase C (PKC), above 100 µg/mL.
As for `CCCCn1c2nc(-c3ccccc3)nc(=O)c-2cc2ccccc21`, half-maximal inhibition in the experiment on KB (IC50) was put at 2.53 µg/mL (≈ 7.68 µM).
As for `CCCCCCCCCCCCn1c2nc(=O)[nH]c(=O)c-2cc2ccc(Cl)cc21`, the IC50 in the experiment with KB is above 10 µg/mL; at Protein kinase C (PKC), above 100 µg/mL.
Turning to `CCn1c2nc(=O)n(-c3ccccc3)c(=O)c-2cc2ccccc21`, the IC50 in the experiment with KB was above 10 µg/mL; on Protein kinase C (PKC), 53.3 µg/mL (≈ 168 µM).
Turning to `Cn1c2nc(-c3ccccc3)nc(=O)c-2cc2ccccc21`, the IC50 against Protein kinase C (PKC) worked out at 3.54 µg/mL (≈ 12.3 µM).
On the same count and under the same terms, the result for `C[C@H]1CNCCN1S(=O)(=O)c1cccc2cnccc12` reads 38.4 µg/mL (≈ 132 µM).
Turning to `Cc1ccc2c(c1)cc1c(=O)n(C)c(=O)nc-1n2-c1ccccc1`, the IC50 in the experiment on KB is above 10 µg/mL; at Protein kinase C (PKC), 26.4 µg/mL (≈ 83.2 µM).
On to `Cn1c2nc(=O)n(-c3ccccc3)c(=O)c-2cc2ccccc21`, for which the values for the IC50 in the experiment on KB and against Protein kinase C (PKC) were above 10 µg/mL and 60.1 µg/mL (≈ 198 µM), respectively.
`CCCCn1c2nc(=O)n(C)c(=O)c-2cc2ccccc21`: the results for the IC50 with KB and on Protein kinase C (PKC) were above 10 µg/mL and 23.9 µg/mL (≈ 84.4 µM), respectively.
Compound `CCn1c2nc(-c3ccccc3)nc(=O)c-2cc2ccccc21` returned an IC50 against Protein kinase C (PKC) of 12.9 µg/mL (≈ 42.8 µM).
For the compound `Nc1ccn([C@@H]2O[C@H](CO)[C@@H](O)[C@@H]2O)c(=O)n1` [CYTARABINE], inhibition in the experiment on KB was half-maximal at 0.14 µg/mL (≈ 0.576 µM) (IC50).
`CCn1c2nc(=O)n(C)c(=O)c-2cc2ccccc21`: the IC50 with KB is above 10 µg/mL; against Protein kinase C (PKC) it was 46.6 µg/mL (≈ 183 µM).
For the compound `Cn1c2nc(N)nc(=O)c-2cc2ccccc21`, the IC50 against Protein kinase C (PKC) turned out to be 14.8 µg/mL (≈ 65.4 µM).
Consider `Cn1c(=O)nc2n(-c3ccccc3)c3ccccc3cc-2c1=O`, for which the figures for the IC50 with KB and against Protein kinase C (PKC) were above 10 µg/mL and above 100 µg/mL, respectively.
Regarding `CCn1c2nc(=O)[nH]c(=O)c-2cc2cc(C)ccc21`, the figures for the IC50 in the experiment with KB and against Protein kinase C (PKC) were above 10 µg/mL and 10 µg/mL (≈ 39.2 µM), respectively.

Source of the values: ChEMBL document CHEMBL1156703, “Antitumor studies -- part 2: structure-activity relationship study for flavin analogs including investigations on their in vitro antitumor assay and docking simulation into protein tyrosine kinase” (Eur J Med Chem, 2008).
